Read-outs that look alike come from different tables or passages of the source.
Experiments:
[1] = tested on: CapF; experiment: NADPH consumption assay (absorbance at 340 nm); assay type: biochemical, Staphylococcus aureus; conditions: 0.02 μM CapF, 1.0 μM CapE, 125 μM UDP-D-GlcNAc, 250 μM NADPH, 37 °C
Experimental: A second assay monitoring the consumption of NADPH corroborates the inhibitory effect of 3-isopropenyl-tropolone (Fig. 2c). This assay is sensitive to the NADPH consumed by the SDR domain during the second reaction catalyzed by CapF (reduction step). […] Nevertheless, additional experiments were required to corroborate that idea (see below).
The enzymatic performance of CapF was evaluated by examining the consumption of NADPH spectrophotometrically, or by monitoring the disappearance of substrate and the formation of product by HPLC[9][12]. First, the time-dependent consumption of NADPH (monitored from a decrease of adsorption at 340 nm) was carried out in 384-well plates at a final volume of 50 μL. The solution contained 1.0 μM CapE, 0.02 μM CapF, 125 μM UDP-D-GlcNAc (substrate), 250 μM NADPH and fragment compounds at various concentrations in HBS supplemented with 0.005% (v/v) Tween-20 and 5% (v/v) DMSO. Each reaction mixture was incubated at 37 °C and the absorption at 340 nm was measured with a plate reader (PHERAstar, BMG Labtech, Durham, NC).
Figure S7. (a) Structure of compounds employed. (b-d) Time course of NADPH consumption by CapF in the presence of (b) tropolone, (c) 4-isopropyl-tropolone, and (d) 2-Cl-tropone. Increasing the concentration of compounds decreases the rate of consumption of NADPH. (e-g) Inhibition after two hours for (e) tropolone, (f) 4-isopropyl-tropolone, and (g) 2-Cl-tropone. Concentration of CapE and CapF was 1.0 µM and 0.02 µM, respectively. Concentration of NADPH and UDP-D-GlcNAc was 250 µM and 125 µM, respectively. The change of absorbance was calculated with respect to a control assay in the absence of CapF.
(1 picture or pasted object on this page, not shown here)

[2] = molecular target: holo-CapF (reconstituted with Zn^2+) (Staphylococcus aureus, UniProt A0A0H3JP37); experiment: ITC binding to CapF reconstituted with Zn2+ (holo-CapF)
Source text: Because tropolone and its analogs have been described as metal chelators in proteins, we anticipated that binding of the inhibitor to CapF is governed by the Zn^2+ ion present in the cupin domain[12]. To confirm this hypothesis, we performed two different types of experiments. First, we determined the binding properties of 3-isopropenyl-tropolone to apo-CapF (i.e. Zn^2+-depleted CapF) and to holo-CapF (reconstituted with Zn^2+) by isothermal titration calorimetry (ITC). The stoichiometry is consistent with a 1:1 binding model.
Figure 3 Binding of 3-isopropenyl-tropolone to CapF requires Zn^2+. CapF (150 μM) reconstituted with Zn^2+ was titrated with 1.65 mM inhibitor in the absence (a) or the presence (b) of 1 mM EDTA. The upper panels correspond to the titration data, and the lower panels to the integrated binding isotherms. (c) Binding competition assay. CapF (1.0 μM) reconstituted with Zn^2+ in the presence of the Zn^2+-sensitive dye FluoZin-3 (1.0 μM) was titrated with 3-isopropenyl-tropolone (λEX = 490 nm; λEM = 520 nm).
Binding constants and thermodynamic parameters of the interaction between CapF and fragment compounds were determined with an iTC200 instrument (GE Healthcare) at 25 °C. Samples were equilibrated in a buffer composed of 10 mM HEPES (pH 7.4) and 150 mM NaCl supplemented with 5% (v/v) DMSO. CapF at 150–270 μM was titrated with compounds at 0.5–1.65 mM. Analysis of the data was performed with ORIGIN7 using a one-site binding model.
Figure S8. Binding isotherms of compounds with CapF as determined by ITC. (a) tropone, (b) 2-Cl-tropone, (c) tropolone, (d) 4-isopropyl-tropolone. Concentration of CapF in the cell was 150 µM, except in panel (a) where it was 270 µM. Concentration of compounds was 1.65 mM, except in panel (a) where it was 0.5 mM. Titrations were performed in an iTC200 instrument at 25 °C.
Data analysis was carried out with ORIGIN.

[3] = molecular target: CapF; conditions: cited from earlier work

Chain of holo-CapF (reconstituted with Zn^2+) (A0A0H3JP37 entry or part of it): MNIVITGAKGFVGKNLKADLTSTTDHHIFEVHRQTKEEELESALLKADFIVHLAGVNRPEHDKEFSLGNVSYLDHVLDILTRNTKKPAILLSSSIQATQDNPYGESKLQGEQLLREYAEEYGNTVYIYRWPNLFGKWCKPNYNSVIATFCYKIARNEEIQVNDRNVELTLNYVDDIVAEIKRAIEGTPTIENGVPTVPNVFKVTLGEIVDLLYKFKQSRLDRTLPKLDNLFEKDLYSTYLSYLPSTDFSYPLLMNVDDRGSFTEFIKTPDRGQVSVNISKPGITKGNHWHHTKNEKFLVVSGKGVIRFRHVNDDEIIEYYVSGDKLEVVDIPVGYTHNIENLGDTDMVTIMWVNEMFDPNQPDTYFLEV

## O=c1cccccc1Cl [2-Cl-tropone]
[1]
  inhibition of NADPH consumption: did not significantly inhibit
[2]; ITC, 25 °C
  binding to CapF by ITC: not detected

## CC(C)c1cccc(=O)c(O)c1 [4-isopropyl-tropolone]
[1]
  inhibition of NADPH consumption: inhibited the consumption of NADPH in a concentration-dependent basis
[2]; ITC, 25 °C, 10 mM HEPES pH 7.4, 150 mM NaCl, 5% DMSO, one-site model, read-out: KD
  Kd: 1800 µM
[2]; ITC, 25 °C, read-out: KD
  Kd: 1800 µM
[2]; ITC, stoichiometry was fixed to n = 1 in the fit
  n (binding stoichiometry): 1.0

## O=c1cccccc1O [tropolone]
[1]
  inhibition of NADPH consumption: inhibited the consumption of NADPH in a concentration-dependent basis
[2]
  Kd: 38 ± 7 µM
[2]; ITC, 25 °C
  n (binding stoichiometry): 1.1 ± 0.2
  ΔH°: -2.9 ± 0.8 kcal/mol
  −TΔS°: -3.2 ± 1.0 kcal/mol
[2]; from ITC binding free energy
  ligand efficiency (LE = −ΔG/HAC): 0.67 kcal/mol

## O=c1cccccc1 [tropone]
[1]
  inhibition of NADPH consumption: did not significantly inhibit
[2]; ITC, 25 °C
  binding to CapF by ITC: not detected

## NADPH
[3]
  Kd: 1.6 µM
